The results in this text go back to patent US20230151010A1, “CRYSTALLINE FORMS OF (9R, 135S)-13- {4-[5-CHLORO-2-(4-CHLORO-1H,2,3- TRIAZOL- 1 -YL)PHENYL] -6-OXO- 1,6-DIHYDROPYRIMIDIN- 1-YL}-3-(DIFLUOROMETHYL)-9-METHYL-3,4,7,15- TETRAAZATRICYCLO [ 12.3.1.0 2·6] OCTADECA- 1(18), 2(6), 4, 14, 16-PENTAEN-8-ONE” (Bristol-Myers Squibb Company, priority 2020, published 2023).

Holding throughout (type): physicochemical
Data set [1] in a line: Dynamic vapor sorption (DVS). The protocol:
About 20 mg of the crystalline form was transferred into a dynamic vapor sorption instrument from Surface Measurement Systems Ltd. (SMS). The weight change was recorded relative to the relative humidity (Target RH %) at 25° C.
Crystalline Forms A and J were analyzed by dynamic vapor sorption (DVS) according to the conditions described in the General Procedures.

Data set [2] is described as follows: Hygroscopicity of forms from the polymorph preparations (method not given).
Data set [3] is described as follows: VT-PXRD analysis of form change.
Data set [4] in a line: Thermogravimetric analysis (TGA). As to conditions: heating 10° C./min, nitrogen. As to the method: TA INSTRUMENT® models Q5000, Q500, or 2950 were used to generate TGA data. The measurement was made using standard TA Instruments Platinum pans. The measurement was made at a heating rate of 10° C./min, in a nitrogen environment from room temperature to 300° C., with a sample size about 10-30 mg.
Crystalline Forms A and J were analyzed by thermogravimetric analysis (TGA) according to the conditions described in the General Procedures. Exemplary TGA thermograms for Forms A and J are shown in FIGS. 4 and 13D, respectively.

As to `C[C@@H]1CCC[C@H](n2cnc(-c3cc(Cl)ccc3-n3cc(Cl)nn3)cc2=O)c2cc(ccn2)-c2c(cnn2C(F)F)NC1=O` [Form A, (9R,13S)-13-{4-[5-chloro-2-(4-chloro-1H-1,2,3-triazol-1-yl)phenyl]-6-oxo-1,6-dihydropyrimidin-1-yl}-3-(difluoromethyl)-9-methyl-3,4,7,15-tetraazatricyclo[12.3.1.0^2,6]octadeca-1(18),2(6),4,14,16-pentaen-8-one], the “change of crystalline form after being subjected to DVS conditions” value in data set [1] (PXRD and IR post-DVS analysis) is on record as “did not change”. The “hygroscopicity indicated by DVS analysis” value in data set [1] (weight change vs relative humidity at 25° C.) is given as “not hygroscopic”.

In the case of `C[C@@H]1CCC[C@H](n2cnc(-c3cc(Cl)ccc3-n3cc(Cl)nn3)cc2=O)c2cc(ccn2)-c2c(cnn2C(F)F)NC1=O` [Form C, (9R,13S)-13-{4-[5-chloro-2-(4-chloro-1H-1,2,3-triazol-1-yl)phenyl]-6-oxo-1,6-dihydropyrimidin-1-yl}-3-(difluoromethyl)-9-methyl-3,4,7,15-tetraazatricyclo[12.3.1.0^2,6]octadeca-1(18),2(6),4,14,16-pentaen-8-one], the hygroscopicity result in data set [2] is “non-hygroscopic”. In data set [3], the “change in form on VT-PXRD analysis” value was “no change in form”.

In the case of `C[C@@H]1CCC[C@H](n2cnc(-c3cc(Cl)ccc3-n3cc(Cl)nn3)cc2=O)c2cc(ccn2)-c2c(cnn2C(F)F)NC1=O` [Form J, (9R,13S)-13-{4-[5-chloro-2-(4-chloro-1H-1,2,3-triazol-1-yl)phenyl]-6-oxo-1,6-dihydropyrimidin-1-yl}-3-(difluoromethyl)-9-methyl-3,4,7,15-tetraazatricyclo[12.3.1.0^2,6]octadeca-1(18),2(6),4,14,16-pentaen-8-one], the “loss of weight in TGA” value in data set [4] (below about 250° C.) was “no significant loss of weight”. Besides, the “onset of decomposition in TGA” value in data set [4] is “about 281 °C”.
